From patent US20110098305A1, “ARYLSULFONAMIDE COMPOUNDS, COMPOSITIONS AND METHODS OF USE” (priority 2008, published 2011)
pIC50: −log10 of the molar value.

Biological target: T1, Bcl-XL (Homo sapiens, UniProt Q07817)
T1 construct: GST tagged Bcl-XL ΔC25 protein (0.6 nM Final concentration)
Assay: Alphascreen competition assay, GST tagged Bcl-XL with biotinylated Bim BH3-26 peptide
Assay type: binding
Conditions: GST tagged Bcl-XL ΔC25 protein 0.6 nM, biotinylated Bim BH3-26 peptide 5.0 nM, read-out: IC50 against Bcl-XL
Text: The following example describes the measurement of competition of compounds of the invention with Bim26-mer for a Bcl-2 homologue binding site.
Alphascreen (Amplified Luminescent Proximity Homogenous Assay) is a bead based technology which measures the interaction between molecules. The assay consists of two hydrogel coated beads which, when brought into close proximity by a binding interaction, results in the transfer of singlet oxygen from a donor bead to an acceptor bead.
Upon binding and excitation with laser light at 680 nm, a photosensitizer in the donor bead converts ambient oxygen to a more excited singlet state. This singlet oxygen then diffuses and reacts with a chemiluminescer in the acceptor bead. Fluorophores within the same bead are activated and result in the emission of light at 580-620 nm.
Screening of the compounds of the invention is performed using the Alphascreen GST (glutathione s-transferase) detection kit system. […] To this reaction mix, anti-GST coated acceptor beads and Streptavidin coated donor beads, both at 15 μg/ml Final concentration, are added and the assay mixture is incubated for 4 hours at room temperature before reading. […]
Assay buffer contains 50 mM Hepes pH 7.4, 10 mM DTT, 100 mM NaCl, 0.05% Tween and 0.1 mg/ml casein. […] Assays are performed in 384 well white Optiplates and is analyzed on the PerkinElmer Fusion alpha plate reader (Ex680, Em520-620 […]). […]

T1 sequence (Q07817 1-208 limits assumed, species assumed): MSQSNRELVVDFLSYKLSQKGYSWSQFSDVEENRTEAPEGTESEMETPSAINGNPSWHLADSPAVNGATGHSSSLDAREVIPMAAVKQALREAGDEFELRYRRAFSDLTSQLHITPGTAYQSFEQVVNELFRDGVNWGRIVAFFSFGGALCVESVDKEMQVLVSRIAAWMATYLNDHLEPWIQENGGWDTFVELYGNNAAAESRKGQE

pIC50: 5.52
Structure (SMILES): O=[N+]([O-])c1cc(S(=O)(=O)Nc2ncnc3cc(-c4ccc(F)cc4)ccc23)ccc1NCCSc1ccccc1 [compound c, N-(7-(4-fluorophenyl)quinazolin-4-yl)-3-nitro-4-(2-(phenylthio)ethylamino)benzenesulfonamide]
